≈ marks a conversion by molar mass, not a printed value. Calls of active or inactive are those of the source. The calls are words filed in the database; no cut-off is given here.
Legend:
Staphylococcus aureus [1] = assay: Antibacterial activity against Staphylococcus aureus FDA 209P at sub-MIC treated over 2 serial passages by resistant development assay; assay type: functional
Escherichia coli [2] = assay: Antimicrobial activity against […] at sub-MIC treated by resistant development assay; assay type: functional; conditions: K-12 substr. W3110
Staphylococcus aureus [3] = assay: Antibacterial activity against Staphylococcus aureus FDA 209P at sub-MIC treated over 4 serial passages by resistant development assay; assay type: functional
Erythrocyte = assay: Haemolytic activity in rabbit RBCs at 10 times MIC; assay type: ADME, cell-based, Oryctolagus cuniculus
Bacillus subtilis = assay: Antibacterial activity against Bacillus subtilis 168 assessed as bacterial growth inhibition after 20 hrs by liquid microdilution method; assay type: functional; conditions: Bacillus subtilis, 168, 20 h
Escherichia coli [4] = assay: Antimicrobial activity against carbapenem-resistant Escherichia coli assessed as bacterial growth inhibition after 20 hrs by liquid microdilution method; assay type: functional
Staphylococcus aureus [5] = assay: Antibacterial activity against Staphylococcus aureus FDA 209P assessed as bacterial growth inhibition after 20 hrs by liquid microdilution method; assay type: functional
[6] = Haemolytic activity in rabbit RBCs at 50 uM relative to control; assay type: ADME, cell-based, Oryctolagus cuniculus, Erythrocyte; conditions: rabbit red blood cells (erythrocytes), read-out: Activity
Staphylococcus aureus [7] = assay: Antibacterial activity against Staphylococcus aureus FDA 209P at sub-MIC treated over 11 serial passages by resistant development assay; assay type: functional
Escherichia coli [8] = assay: Antimicrobial activity against ESBL-producing Escherichia coli assessed as bacterial growth inhibition after 20 hrs by liquid microdilution method; assay type: functional
[9] = Partition coefficient, log P of compound; assay type: physicochemical; conditions: octanol/water
Pseudomonas aeruginosa [10] = assay: Antibacterial activity against carbapenem-reistant Pseudomonas aeruginosa PAO1 assessed as bacterial growth inhibition after 20 hrs by liquid microdilution method; assay type: functional; conditions: PAO1, 20 h
Salmonella typhimurium = assay: Antibacterial activity against Salmonella typhimurium LT2 assessed as bacterial growth inhibition after 20 hrs by liquid microdilution method; assay type: functional, Salmonella enterica subsp. enterica serovar Typhimurium; conditions: Salmonella enterica, LT2, 20 h
Pseudomonas aeruginosa [11] = assay: Antibacterial activity against Pseudomonas aeruginosa PAO1 assessed as bacterial growth inhibition after 20 hrs by liquid microdilution method; assay type: functional; conditions: PAO1, 20 h
Escherichia coli [12] = assay: Antibacterial activity against Escherichia coli K12 W3110 assessed as bacterial growth inhibition after 20 hrs by liquid microdilution method; assay type: functional; conditions: K-12 substr. W3110, 20 h
Escherichia coli [13] = assay: Induction of membrane permeabilization in Escherichia coli K12 W3110 assessed as increase in potassium efflux; assay type: functional, organism-based
Staphylococcus aureus [14] = assay: Induction of membrane permeabilization in Staphylococcus aureus FDA 209P assessed as decrease in cell viability; assay type: functional, organism-based
Escherichia coli [15] = assay: Induction of membrane permeabilization in Escherichia coli K12 W3110 assessed as decrease in cell viability; assay type: functional, organism-based
Staphylococcus aureus [16] = assay: Induction of membrane permeabilization in Staphylococcus aureus FDA 209P assessed as increase in potassium efflux; assay type: functional, organism-based
Staphylococcus aureus [17] = assay: Antibacterial activity against Staphylococcus aureus FDA 209P at sub-MIC by resistant development assay; assay type: functional

| SMILES | MIC (Staphylococcus aureus [1]) [µM] | MIC (Escherichia coli [2]) [µM] | MIC (Staphylococcus aureus [3]) [µM] | Activity (Erythrocyte) | MIC (Bacillus subtilis) [µM] | MIC (Escherichia coli [4]) [µM] | MIC (Staphylococcus aureus [5]) [µM] | hemolysis at 50 µM [6] [%] | MIC (Staphylococcus aureus [7]) [µM] | MIC (Escherichia coli [8]) [µM] | logP [9] | MIC (Pseudomonas aeruginosa [10]) [µM] | MIC (Salmonella typhimurium) [µM] | MIC (Pseudomonas aeruginosa [11]) [µM] | MIC (Escherichia coli [12]) [µM] | Activity (Escherichia coli [13]) | Activity (Staphylococcus aureus [14]) | Activity (Escherichia coli [15]) | Activity (Staphylococcus aureus [16]) | MIC (Staphylococcus aureus [17]) [µM] |
| --- | --- | --- | --- | --- | --- | --- | --- | --- | --- | --- | --- | --- | --- | --- | --- | --- | --- | --- | --- | --- |
| C[C@@H]1O[C@@H]1P(=O)(O)O [FOSFOMYCIN] | 14 (≈ 1.93 µg/mL) | 58 to 927 (≈ 8.01 to 128 µg/mL) | > 927 |  |  |  |  |  |  |  |  |  |  |  |  |  |  |  |  |  |
| CCC(=O)O[C@@H]1[C@@H](OC(=O)CC)[C@H]2O[C@H]3[C@H](OC(=O)CC)[C@@H](OC(=O)CC)[C@@H](O[C@H]4[C@H](OC(=O)CC)[C@@H](OC(=O)CC)[C@@H](O[C@H]5[C@H](OC(=O)CC)[C@@H](OC(=O)CC)[C@@H](O[C@H]6[C@H](OC(=O)CC)[C@@H](OC(=O)CC)[C@@H](O[C@H]7[C@H](OC(=O)CC)[C@@H](OC(=O)CC)[C@@H](O[C@@H]1[C@@H](Cn1cc(CN)nn1)O2)O[C@@H]7Cn1cc(CN)nn1)O[C@@H]6Cn1cc(CN)nn1)O[C@@H]5Cn1cc(CN)nn1)O[C@@H]4Cn1cc(CN)nn1)O[C@@H]3Cn1cc(CN)nn1 |  | 3 to 6 (≈ 6.38 to 12.8 µg/mL) |  | Non-Toxic | 3 (≈ 6.38 µg/mL) | 5 (≈ 10.6 µg/mL) | 6 (≈ 12.8 µg/mL) | 3 | 6 (≈ 12.8 µg/mL) | 5 (≈ 10.6 µg/mL) | -0.89 | 5 (≈ 10.6 µg/mL) | 6 (≈ 12.8 µg/mL) | 3 (≈ 6.38 µg/mL) | 3 (≈ 6.38 µg/mL) |  |  |  |  |  |
| CCC(=O)O[C@@H]1[C@@H](OC(=O)CC)[C@H]2O[C@H]3[C@H](OC(=O)CC)[C@@H](OC(=O)CC)[C@@H](O[C@H]4[C@H](OC(=O)CC)[C@@H](OC(=O)CC)[C@@H](O[C@H]5[C@H](OC(=O)CC)[C@@H](OC(=O)CC)[C@@H](O[C@H]6[C@H](OC(=O)CC)[C@@H](OC(=O)CC)[C@@H](O[C@H]7[C@H](OC(=O)CC)[C@@H](OC(=O)CC)[C@@H](O[C@H]8[C@H](OC(=O)CC)[C@@H](OC(=O)CC)[C@@H](O[C@H]9[C@H](OC(=O)CC)[C@@H](OC(=O)CC)[C@@H](O[C@@H]1[C@@H](Cn1cc(CN)nn1)O2)O[C@@H]9Cn1cc(CN)nn1)O[C@@H]8Cn1cc(CN)nn1)O[C@@H]7Cn1cc(CN)nn1)O[C@@H]6Cn1cc(CN)nn1)O[C@@H]5Cn1cc(CN)nn1)O[C@@H]4Cn1cc(CN)nn1)O[C@@H]3Cn1cc(CN)nn1 |  |  |  |  | 2 (≈ 5.67 µg/mL) | 9 (≈ 25.5 µg/mL) | 9 (≈ 25.5 µg/mL) | 17 |  | 4 (≈ 11.3 µg/mL) | -0.89 | 9 (≈ 25.5 µg/mL) | 9 (≈ 25.5 µg/mL) | 4 (≈ 11.3 µg/mL) | 4 (≈ 11.3 µg/mL) | Active | Active | Active | Active |  |
| CCn1cc(C(=O)O)c(=O)c2cc(F)c(N3CCNCC3)cc21 [NORFLOXACIN] |  | 0.2 to 6 (≈ 0.0639 to 1.92 µg/mL) |  |  |  |  |  |  |  |  |  |  |  |  |  |  |  |  |  | 0.8 to 3 (≈ 0.255 to 0.958 µg/mL) |

— ChEMBL document CHEMBL4334431, “Gramicidin S-inspired antimicrobial cyclodextrin to disrupt gram-negative and gram-positive bacterial membranes” (Medchemcomm, 2019)
